This note sets out measurements from patent US7897602B2, “Indolinone compounds as kinase inhibitors” (Development Center for Biotechnology, priority 2009, dated 2011).

Common to all, as to type: biochemical
In one assay the target is T1, Aurora A kinase (Homo sapiens, UniProt O14965).
T1 construct: purchased Upstate
T1 sequence (O14965 1-403): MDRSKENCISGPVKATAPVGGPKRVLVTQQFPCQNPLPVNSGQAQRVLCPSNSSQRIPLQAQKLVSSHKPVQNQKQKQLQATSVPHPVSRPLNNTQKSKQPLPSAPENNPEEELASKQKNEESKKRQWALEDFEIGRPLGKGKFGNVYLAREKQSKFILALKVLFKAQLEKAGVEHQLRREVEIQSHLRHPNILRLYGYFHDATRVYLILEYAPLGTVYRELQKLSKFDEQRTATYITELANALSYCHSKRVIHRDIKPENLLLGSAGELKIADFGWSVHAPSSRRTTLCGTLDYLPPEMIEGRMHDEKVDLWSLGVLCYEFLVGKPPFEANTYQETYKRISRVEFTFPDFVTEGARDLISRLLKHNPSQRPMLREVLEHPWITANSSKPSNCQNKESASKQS
Kind of assay: Aurora A kinase assay ([γ-33P]ATP, CHOCKtide substrate). As to conditions: for inhibition at 1 µM: 1.0 μM test compound. As to the method: (§1) Inhibition of Aurora Kinase by the compounds disclosed herein was determined by incubating Aurora kinase, substrate, and a test compound together for a period of time followed by quantifying the resultant phosphorylated product. Specifically, in a well of a 96-well round bottom plate, 25 μL of a reaction mixture containing (1) a test compound disclosed herein (diluted from 9 μM to the desired final concentration), [γ-33P]ATP/ATP mix (10 μM), CHOCKtide (1 μg, Genesis Biotech Inc.), and Aurora-A (1 ng, purchased from Upstate); or (2) a test compound disclosed herein (diluted from 9 μM to the desired final concentration), [γ-33P]ATP/ATP mix (40 μM), CHOCKtide (1 μg, Genesis Biotech Inc.), and Aurora-B (2.5 ng, purchased from Cell signaling); was prepared and incubated at 33° C. for 30 minutes. The reaction was then stopped by adding 5 μL of 3% phosphoric acid. The resultant solution (30 μL) was later harvested by a UniFilter Plate GF/B (PerkinElmer) followed by adding 30 μL of the scintillation cocktail (MicroScint 20, PerkinElmer) to the well. The radioactivity retained on the filter membrane was measured by a luminescence counter (PerkinElmer). IC50 value is defined as the concentration of the test compound which achieves a half-maximal inhibition of the kinase activity.

Another assay has as its target T2, Aurora B kinase (Homo sapiens, UniProt Q96GD4).
T2 construct: purchased Cell signaling
Briefly: Aurora B kinase assay ([γ-33P]ATP, CHOCKtide substrate). Conditions: 1.0 μM test compound. As to the method:
as §1

In a further assay the target is T3, c-Met kinase (Homo sapiens, UniProt P08581).
T3 construct: recombinant N-terminal 6×His-tagged c-Met kinase domain construct expressed from baculovirus; 6xHis (N); made in house
Kind of assay: c-Met kinase assay (33P incorporation into Poly(Glu-Tyr)). Conditions: 500 nM test compound. The procedure:
Inhibition of c-Met kinase activity by compounds disclosed herein was quantified by measuring the amount of [^33P] incorporated into the substrate in the presence of a test compound. Briefly, a reaction mixture of 25 μL final volume containing 5 ng of c-Met kinase (obtained by purifying recombinant N-terminal 6×His-tagged c-Met kinase domain construct expressed from baculovirus), 1 μg of the substrate (Poly (Glu-Tyr, 4:1, Sigma)), kinase reaction buffer (20 mM MOPS pH 7.0, 1 mM EDTA, 5% glycerol, 0.01% Brij-35, 0.1% β-mercaptoethanol, 1 mg/mL BSA, 100 μM ATP, 0.1 μCi per well [^33P]-γ-ATP (2,500-3,000 Ci/mmol)), and a test compound (500 nM, diluted with 4% DMSO) or DMSO (as the control) was incubated at 30° C. for 30 minutes. The reaction was stopped by adding 5 μL of 3% phosphoric acid solution. The resultant reaction solution was then harvested onto a filter plate (UniFilter-96 GF/B, PerkinElmer), washed 20 times for 5 min with d.d. H2O, and followed by the addition of 30 μL of MicroScint™-20 Cocktail (PerkinElmer). The plate was then sealed and counted using a TopCount scintillation detector (PerkinElmer). The percentage of inhibition rate of the test compound was calculated by dividing the retained radioactivity of the test sample with the retained radioactivity of the control sample and shown in Table 3.

The structures appear in SMILES notation.

As usually defined, the inhibition is the change of the read-out against control, counted positive when it falls. For orientation: IC50 means the point on the concentration scale where inhibition reaches its midpoint.

T2 sequence (Q96GD4 whole entry): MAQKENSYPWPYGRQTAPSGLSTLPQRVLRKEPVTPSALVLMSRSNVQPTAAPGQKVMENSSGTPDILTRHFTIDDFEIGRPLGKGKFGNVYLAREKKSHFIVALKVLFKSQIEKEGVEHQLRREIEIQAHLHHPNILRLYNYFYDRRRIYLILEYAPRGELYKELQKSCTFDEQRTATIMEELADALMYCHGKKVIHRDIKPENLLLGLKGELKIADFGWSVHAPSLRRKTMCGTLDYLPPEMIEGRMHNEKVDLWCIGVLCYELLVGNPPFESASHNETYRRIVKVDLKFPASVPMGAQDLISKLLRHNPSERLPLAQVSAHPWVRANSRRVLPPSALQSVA
T3 sequence (P08581 1078-1345 limits assumed): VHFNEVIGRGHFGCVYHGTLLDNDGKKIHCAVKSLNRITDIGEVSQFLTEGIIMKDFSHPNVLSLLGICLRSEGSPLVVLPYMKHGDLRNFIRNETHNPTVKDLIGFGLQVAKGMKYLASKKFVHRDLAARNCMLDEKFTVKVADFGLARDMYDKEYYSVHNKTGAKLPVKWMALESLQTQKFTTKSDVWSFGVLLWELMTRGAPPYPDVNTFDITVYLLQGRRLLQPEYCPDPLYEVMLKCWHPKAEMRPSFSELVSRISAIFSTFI

Consider `CCOC(=O)CCc1c(/C=C2\C(=O)Nc3ccc(OC)cc32)[nH]c2c1C(=O)CCCC2` [DCB-70154, (Z)-ethyl 3-(2-((5-methoxy-2-oxoindolin-3-ylidene)methyl)-4-oxo-1,4,5,6,7,8-hexahydrocyclohepta[b]pyrrol-3-yl)propanoate], for which the inhibition at 1 µM against Aurora A kinase was -0.3%; on Aurora B kinase, 2.8%. For the same compound, the inhibition at 0.5 µM against c-Met kinase was 47.9%.

Take `COc1ccc2c(c1)/C(=C/c1[nH]c3c(c1CCC(=O)O)C(=O)CCCC3)C(=O)N2` [DCB-70155, (Z)-3-(2-((5-methoxy-2-oxoindolin-3-ylidene)methyl)-4-oxo-1,4,5,6,7,8-hexahydrocyclohepta[b]pyrrol-3-yl)propanoic acid]: the inhibition at 1 µM against Aurora A kinase was 75.6%; on Aurora B kinase it was 10.7%. In addition, at c-Met kinase, the inhibition at 0.5 µM was determined as 9.1%.

Turning to `CNC(=O)CCc1c(/C=C2\C(=O)Nc3ccc(S(=O)(=O)Cc4c(Cl)cccc4Cl)cc32)[nH]c2c1C(=O)CCC2` [DCB-70157, (Z)-3-(2-((5-(2,6-dichlorobenzylsulfonyl)-2-oxoindolin-3-ylidene)methyl)-4-oxo-4,5,6,7-tetrahydro-1H-indol-3-yl)-N-methylpropanamide], the inhibition at 1 µM against Aurora A kinase worked out at 13%; against Aurora B kinase, 6.9%. Also, the inhibition at 0.5 µM against c-Met kinase worked out at 85.6%.

`CCOC(=O)CCc1c(/C=C2\C(=O)Nc3ccc(S(=O)(=O)Cc4c(Cl)cccc4Cl)cc32)[nH]c2c1C(=O)CC(C)(C)C2` [DCB-70158, (Z)-ethyl 3-(2-((5-(2,6-dichlorobenzylsulfonyl)-2-oxoindolin-3-ylidene)methyl)-6,6-dimethyl-4-oxo-4,5,6,7-tetrahydro-1H-indol-3-yl)propanoate]: the inhibition at 1 µM against Aurora A kinase came to 5.2%; at Aurora B kinase it was 6.1%. The inhibition at 0.5 µM against c-Met kinase was determined as 85.4%.

On to `CC1(C)CC(=O)c2c([nH]c(/C=C3\C(=O)Nc4ccc(S(=O)(=O)Cc5c(Cl)cccc5Cl)cc43)c2CCC(=O)O)C1` [DCB-70159, (Z)-3-(2-((5-(2,6-dichlorobenzylsulfonyl)-2-oxoindolin-3-ylidene)methyl)-6,6-dimethyl-4-oxo-4,5,6,7-tetrahydro-1H-indol-3-yl)propanoic acid], for which the results for the inhibition at 1 µM against Aurora A kinase and on Aurora B kinase were 13.9% and -5.5%, respectively. Moreover, the inhibition at 0.5 µM against c-Met kinase amounted to 81.3%.

On to `CCOC(=O)CCc1c(/C=C2\C(=O)Nc3ccc(S(=O)(=O)N4CCc5ccccc54)cc32)[nH]c2c1C(=O)CC(C)(C)C2` [DCB-70160, (Z)-ethyl 3-(2-((5-(indolin-1-ylsulfonyl)-2-oxoindolin-3-ylidene)methyl)-6,6-dimethyl-4-oxo-4,5,6,7-tetrahydro-1H-indol-3-yl)propanoate], for which the inhibition at 1 µM on Aurora A kinase was 5%; against Aurora B kinase, 6.1%. The inhibition at 0.5 µM against c-Met kinase came out at 59.1%.

Consider `CC1(C)CC(=O)c2c([nH]c(/C=C3\C(=O)Nc4ccc(S(=O)(=O)N5CCc6ccccc65)cc43)c2CCC(=O)O)C1` [DCB-70161, (Z)-3-(2-((5-(indolin-1-ylsulfonyl)-2-oxoindolin-3-ylidene)methyl)-6,6-dimethyl-4-oxo-4,5,6,7-tetrahydro-1H-indol-3-yl)propanoic acid], for which the results for the inhibition at 1 µM against Aurora A kinase and against Aurora B kinase were 78.8% and 14.6%, respectively. The inhibition at 0.5 µM against c-Met kinase worked out at 59.7%.

For `CCOC(=O)CCc1c(/C=C2\C(=O)Nc3ccc(OC)cc32)[nH]c2c1C(=O)CCC2` [DCB-70166, (Z)-ethyl 3-(2-((5-methoxy-2-oxoindolin-3-ylidene)methyl)-4-oxo-4,5,6,7-tetrahydro-1H-indol-3-yl)propanoate], the values for the inhibition at 1 µM against Aurora A kinase and against Aurora B kinase were 48.8% and 13%, respectively. Moreover, the inhibition at 0.5 µM against c-Met kinase came to 21.6%.

For the compound `COc1ccc2c(c1)/C(=C/c1[nH]c3c(c1CCC(=O)O)C(=O)CCC3)C(=O)N2` [DCB-70167, (Z)-3-(2-((5-methoxy-2-oxoindolin-3-ylidene)methyl)-4-oxo-4,5,6,7-tetrahydro-1H-indol-3-yl)propanoic acid], on Aurora A kinase, the midpoint of inhibition, the IC50, lay at 134 nM and the inhibition at 1 µM is 86.4%. Moreover, the inhibition at 1 µM on Aurora B kinase worked out at 19.8%. In addition, on c-Met kinase, the inhibition at 0.5 µM came out at 11.8%.

With `CCOC(=O)CCc1c(/C=C2\C(=O)Nc3ccc(NS(=O)(=O)c4ccccc4)cc32)[nH]c2c1C(=O)CC(C)(C)C2` [DCB-70168, (Z)-ethyl 3-(6,6-dimethyl-4-oxo-2-((2-oxo-5-(phenylsulfonamido)indolin-3-ylidene)methyl)-4,5,6,7-tetrahydro-1H-indol-3-yl)propanoate], the inhibition at 1 µM against Aurora A kinase was determined as 53.4%; against Aurora B kinase, 30.6%. Moreover, the inhibition at 0.5 µM on c-Met kinase stood at 12.7%.

Turning to `CC1(C)CC(=O)c2c([nH]c(/C=C3\C(=O)Nc4ccc(NS(=O)(=O)c5ccccc5)cc43)c2CCC(=O)O)C1` [DCB-70169, (Z)-3-(6,6-dimethyl-4-oxo-2-((2-oxo-5-(phenylsulfonamido)indolin-3-ylidene)methyl)-4,5,6,7-tetrahydro-1H-indol-3-yl)propanoic acid], the inhibition at 1 µM amounted to 79.6% against Aurora A kinase and 31% at Aurora B kinase. At c-Met kinase, the inhibition at 0.5 µM is 10.8%.

Regarding `CCCCCCC#Cc1ccc2c(c1)NC(=O)/C2=C\c1[nH]c2c(c1CCC(=O)OCC)C(=O)CCC2` [DCB-70170, (Z)-ethyl 3-(2-((6-(oct-1-ynyl)-2-oxoindolin-3-ylidene)methyl)-4-oxo-4,5,6,7-tetrahydro-1H-indol-3-yl)propanoate], the values for the inhibition at 1 µM on Aurora A kinase and against Aurora B kinase were 10.5% and 2.8%, respectively. Besides, the inhibition at 0.5 µM on c-Met kinase was determined as 13.1%.

`CCCCCCC#Cc1ccc2c(c1)NC(=O)/C2=C\c1[nH]c2c(c1CCC(=O)O)C(=O)CCC2` [DCB-70171, (Z)-3-(2-((6-(oct-1-ynyl)-2-oxoindolin-3-ylidene)methyl)-4-oxo-4,5,6,7-tetrahydro-1H-indol-3-yl)propanoic acid]: the inhibition at 1 µM on Aurora A kinase is 73%; at Aurora B kinase it was 17.4%. Moreover, at c-Met kinase, the inhibition at 0.5 µM came out at 18.2%.

Take `CCCCCCC#Cc1ccc2c(c1)/C(=C/c1[nH]c3c(c1CCC(=O)OCC)C(=O)CCC3)C(=O)N2` [DCB-70172, (Z)-ethyl 3-(2-((5-(oct-1-ynyl)-2-oxoindolin-3-ylidene)methyl)-4-oxo-4,5,6,7-tetrahydro-1H-indol-3-yl)propanoate]: the inhibition at 1 µM at Aurora A kinase was -3.1%; against Aurora B kinase, -3.2%. For the same compound, the inhibition at 0.5 µM against c-Met kinase was 10.4%.

Take `CCCCCCC#Cc1ccc2c(c1)/C(=C/c1[nH]c3c(c1CCC(=O)O)C(=O)CCC3)C(=O)N2` [DCB-70173, (Z)-3-(2-((5-(oct-1-ynyl)-2-oxoindolin-3-ylidene)methyl)-4-oxo-4,5,6,7-tetrahydro-1H-indol-3-yl)propanoic acid]: the inhibition at 1 µM at Aurora A kinase was 13.6%; at Aurora B kinase it was -9.8%. The inhibition at 0.5 µM against c-Met kinase is 13.7%.

On to `CCN(CC)CCNC(=O)CCc1c(/C=C2\C(=O)Nc3ccc(S(=O)(=O)Cc4c(Cl)cccc4Cl)cc32)[nH]c2c1C(=O)CCC2` [DCB-70223, (Z)-3-(2-((5-(2,6-dichlorobenzylsulfonyl)-2-oxoindolin-3-ylidene)methyl)-4-oxo-4,5,6,7-tetrahydro-1H-indol-3-yl)-N-(2-(diethylamino)ethyl)propanamide], for which the results for the inhibition at 1 µM on Aurora A kinase and against Aurora B kinase were 68.5% and 43.7%, respectively.
